Patent publication US11485742B2, “2-azaspiro[3.4]octane derivatives as M4 agonists” (NOVARTIS AG, priority 2019, dated 2022)
Counter-ions that a name gives are not always drawn.

How the values were obtained:
[1] = biological target: T1, human cloned CHRM4 receptor (Homo sapiens, UniProt P08173); test: CHRM4 Ca++ Flux Assay (M4_CHO cells, agonist mode); format: cell-based; settings: for M4 FDSS PA % / Emax: Percent Activity (PA); for EC50: geometric mean if tested more than once, read-out: M4 FDSS EC50; for Emax: read-out: M4 FDSS PA %
T1 construct: expressed in transfected cells; host or cells: CHO-K1 (M4_CHO)
T1 sequence (P08173 1-479): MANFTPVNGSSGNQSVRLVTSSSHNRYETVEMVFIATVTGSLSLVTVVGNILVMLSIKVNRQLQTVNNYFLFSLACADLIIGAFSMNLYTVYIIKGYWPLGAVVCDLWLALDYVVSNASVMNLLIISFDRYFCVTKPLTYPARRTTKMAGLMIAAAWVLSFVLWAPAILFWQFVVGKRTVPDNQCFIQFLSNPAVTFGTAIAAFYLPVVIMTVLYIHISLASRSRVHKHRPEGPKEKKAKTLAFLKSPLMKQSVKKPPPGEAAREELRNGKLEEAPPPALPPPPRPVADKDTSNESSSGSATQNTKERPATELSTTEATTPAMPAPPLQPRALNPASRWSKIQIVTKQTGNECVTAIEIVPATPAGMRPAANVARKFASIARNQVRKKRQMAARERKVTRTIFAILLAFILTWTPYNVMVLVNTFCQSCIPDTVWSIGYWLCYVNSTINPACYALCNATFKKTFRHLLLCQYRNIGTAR
In short: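 Agonist-mode calcium flux in an M4-expressing CHO-K1 line: compounds were dosed at 11 points in triplicate and fluorescence was tracked for 3 min. Cells were preloaded with Ca++ dye and kept in −Ca/−Mg HBSS with 20 μM ATP for 60 min. Efficacy is scaled to carbachol EC100; EC50s come from four-parameter regression, geometric mean across runs.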

[2] = biological target: T2, human cloned CHRM2 receptor (Homo sapiens, UniProt P08172); test: CHRM2 Ca++ Flux Assay (M2_CHO cells, agonist mode); format: cell-based; settings: M2 CHO cells; for EC50: agonist mode, geometric mean if tested more than once, read-out: M2 FDSS EC50; for M2 FDSS PA % / Emax: Percent Activity (PA) measured to EC100 of Carbachol; for Emax: read-out: M2 FDSS PA %
T2 construct: expressed in transfected cells; host or cells: CHO-K1 (M2_CHO)
T2 sequence (P08172 1-466): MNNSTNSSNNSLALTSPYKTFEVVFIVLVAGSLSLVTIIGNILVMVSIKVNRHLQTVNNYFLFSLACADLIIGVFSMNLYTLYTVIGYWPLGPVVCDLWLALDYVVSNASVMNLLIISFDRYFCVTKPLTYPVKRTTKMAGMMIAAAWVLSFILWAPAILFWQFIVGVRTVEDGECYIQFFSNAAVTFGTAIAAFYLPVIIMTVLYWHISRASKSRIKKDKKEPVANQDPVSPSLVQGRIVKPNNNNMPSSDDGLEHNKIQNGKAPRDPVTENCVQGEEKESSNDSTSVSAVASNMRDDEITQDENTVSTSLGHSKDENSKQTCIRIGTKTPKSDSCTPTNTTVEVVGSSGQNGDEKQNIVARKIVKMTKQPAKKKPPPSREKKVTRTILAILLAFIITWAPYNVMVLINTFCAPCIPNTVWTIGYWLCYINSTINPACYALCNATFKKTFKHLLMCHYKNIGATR
In short: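 Agonist activity was expressed as percent of the carbachol EC100 response, fitted by four-parameter regression on triplicate wells, with geometric means across repeat runs. Calcium traces over 3 minutes came from dye-loaded M2_CHO cells (12K/well) pre-incubated 60 min in Ca/Mg-free HBSS with 20 mM HEPES, 2.5 mM probenecid and 20 μM ATP.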

SMILES | M4 FDSS PA % [1] [%] | EC50 [1] [nM] | EC50 [2] [nM] | M2 FDSS PA % [2] [%] | Emax [1] [%] | Emax [2] [%]
CC(C)(O)[C@H]1C[C@@H](Oc2ccc(F)cc2C2CCN([C@@H]3COC4(C3)CN(c3ncco3)C4)CC2)C1 (single isomer, unassigned) [Example 4T, 2-((1R,3s)-3-(4-fluoro-2-(1-((S)-2-(oxazol-2-yl)-5-oxa-2-azaspiro[3.4]octan-7-yl)piperidin-4-yl)phenoxy)cyclobutyl)propan-2-ol or 2-((1S,3r)-3-(4-fluoro-2-(1-((S)-2-(oxazol-2-yl)-5-oxa-2-azaspiro[3.4]octan-7-yl)piperidin-4-yl)phenoxy)cyclobutyl)propan-2-ol] | 63 | 25 | 17700 | 43 |  | 
CC(C)(O)COc1ccc(F)cc1C1CCN([C@@H]2COC3(C2)CN(c2ncns2)C3)CC1 [Example 5C, (S)-1-(2-(1-(2-(1,2,4-thiadiazol-5-yl)-5-oxa-2-azaspiro[3.4]octan-7-yl)piperidin-4-yl)-4-fluorophenoxy)-2-methylpropan-2-ol] |  | 110 | > 25000 |  | 66 | 0
c1ccc([C@@H]2CCOC2)c(C2CCN([C@@H]3COC4(C3)CN(c3nnco3)C4)CC2)c1 (single isomer, unassigned) [Example 3B, (S)-2-(1,3,4-oxadiazol-2-yl)-7-(4-(2-((S)-tetrahydrofuran-3-yl)phenyl)piperidin-1-yl)-5-oxa-2-azaspiro[3.4]octane or (S)-2-(1,3,4-oxadiazol-2-yl)-7-(4-(2-((R)-tetrahydrofuran-3-yl)phenyl)piperidin-1-yl)-5-oxa-2-azaspiro[3.4]octane] | 86 | 69 | 1500 | 31 |  | 
Fc1ccc(OCC2C3COCC32)c(C2CCN([C@@H]3COC4(C3)CN(c3nnco3)C4)CC2)c1 (stereo partly drawn) [Example 2Z, (7S)-7-(4-(2-((3-oxabicyclo[3.1.0]hexan-6-yl)methoxy)-5-fluorophenyl)piperidin-1-yl)-2-(1,3,4-oxadiazol-2-yl)-5-oxa-2-azaspiro[3.4]octane] |  | 108 | 760 |  | 51 | 24
COCCOc1ccc(F)cc1C1CCN([C@@H]2COC3(C2)CN(c2ncns2)C3)CC1 [Example 5D, (S)-7-(4-(5-fluoro-2-(2-methoxyethoxy)phenyl)piperidin-1-yl)-2-(1,2,4-thiadiazol-5-yl)-5-oxa-2-azaspiro[3.4]octane] |  | 128 | > 25000 |  | 46 | 0
Fc1cc(F)c(OC2COC2)c(C2CCN([C@@H]3COC4(C3)CN(c3nnco3)C4)CC2)c1 [Example 2EE, (S)-7-(4-(3,5-difluoro-2-(oxetan-3-yloxy)phenyl)piperidin-1-yl)-2-(1,3,4-oxadiazol-2-yl)-5-oxa-2-azaspiro[3.4]octane] |  | 86 | 2940 |  | 74 | 50
c1ccc(C2CCN([C@@H]3COC4(C3)CN(c3ncco3)C4)CC2)c(O[C@H]2CCOC2)c1 [Example 4H, (S)-2-(oxazol-2-yl)-7-(4-(2-(((S)-tetrahydrofuran-3-yl)oxy)phenyl)piperidin-1-yl)-5-oxa-2-azaspiro[3.4]octane] |  | 17 | > 25000 |  | 69 | 20
Fc1cc(OC2COC2)c(C2CCN([C@@H]3COC4(C3)CN(c3ncco3)C4)CC2)cc1F [Example 4Q, (S)-7-(4-(4,5-difluoro-2-(oxetan-3-yloxy)phenyl)piperidin-1-yl)-2-(oxazol-2-yl)-5-oxa-2-azaspiro[3.4]octane] |  | 11 | 1880 |  | 60 | 13
c1ccc(C2CCN([C@@H]3COC4(C3)CN(c3nncs3)C4)CC2)c(OC2COC2)c1 [Example 5Q, (S)-7-(4-(2-(oxetan-3-yloxy)phenyl)piperidin-1-yl)-2-(1,3,4-thiadiazol-2-yl)-5-oxa-2-azaspiro[3.4]octane formate salt] |  | 92 | > 25000 |  | 83 | 0
O[C@H]1CC[C@@H](c2ccc(F)cc2C2CCN([C@@H]3COC4(C3)CN(c3nnco3)C4)CC2)CC1 (single isomer, unassigned) [Example 3I, (1R,4s)-4-(2-(1-((S)-2-(1,3,4-oxadiazol-2-yl)-5-oxa-2-azaspiro[3.4]octan-7-yl)piperidin-4-yl)-4-fluorophenyl)cyclohexan-1-ol or (1S,4r)-4-(2-(1-((S)-2-(1,3,4-oxadiazol-2-yl)-5-oxa-2-azaspiro[3.4]octan-7-yl)piperidin-4-yl)-4-fluorophenyl)cyclohexan-1-ol] | 91.2 | 38 | 3860 | 32 |  | 
Fc1ccc(O[C@H]2CCOC2)c(C2CCN([C@@H]3COC4(C3)CN(c3nnco3)C4)CC2)c1 [Example 1H, (S)-7-(4-(5-fluoro-2-(((S)-tetrahydrofuran-3-yl)oxy)phenyl)piperidin-1-yl)-2-(1,3,4-oxadiazol-2-yl)-5-oxa-2-azaspiro[3.4]octane] |  | 34 | 801 |  | 77 | 30
COc1ccc(Cl)cc1C1CCN([C@@H]2COC3(C2)CN(c2ncns2)C3)CC1 [Example 5A, (S)-7-(4-(5-chloro-2-methoxyphenyl)piperidin-1-yl)-2-(1,2,4-thiadiazol-5-yl)-5-oxa-2-azaspiro[3.4]octane] |  | 74 | > 25000 |  | 60 | 26
Fc1ccc(O[C@H]2CCOC2)c(C2CCN([C@@H]3COC4(C3)CN(c3nncs3)C4)CC2)c1 [Example 5O, (S)-7-(4-(5-fluoro-2-(((S)-tetrahydrofuran-3-yl)oxy)phenyl)piperidin-1-yl)-2-(1,3,4-thiadiazol-2-yl)-5-oxa-2-azaspiro[3.4]octane] |  | 71 | 1170 |  | 74 | 33
COCCOc1ccc(F)cc1C1CCN([C@@H]2COC3(C2)CN(c2nncs2)C3)CC1 [Example 5S, (S)-7-(4-(5-fluoro-2-(2-methoxyethoxy)phenyl)piperidin-1-yl)-2-(1,3,4-thiadiazol-2-yl)-5-oxa-2-azaspiro[3.4]octane] |  | 197 | 4600 |  | 69 | 23
Fc1ccc(OC2CCOCC2)c(C2CCN([C@@H]3COC4(C3)CN(c3ncco3)C4)CC2)c1 [Example 4E, (S)-7-(4-(5-fluoro-2-((tetrahydro-2H-pyran-4-yl)oxy)phenyl)piperidin-1-yl)-2-(oxazol-2-yl)-5-oxa-2-azaspiro[3.4]octane] |  | 12 | > 25000 |  | 81 | 0
CC(C)(O)[C@H]1C[C@H](Oc2ccc(F)cc2C2CCN([C@@H]3COC4(C3)CN(c3nnco3)C4)CC2)C1 (single isomer, unassigned) [Example 2V, 2-((1S,3r)-3-(2-(1-((S)-2-(1,3,4-oxadiazol-2-yl)-5-oxa-2-azaspiro[3.4]octan-7-yl)piperidin-4-yl)-4-fluorophenoxy)cyclobutyl)propan-2-ol or 2-((1R,3s)-3-(2-(1-((S)-2-(1,3,4-oxadiazol-2-yl)-5-oxa-2-azaspiro[3.4]octan-7-yl)piperidin-4-yl)-4-fluorophenoxy)cyclobutyl)propan-2-ol] | 75 | 94 | 1080 | 28 |  | 
Fc1cc(OC2CCOCC2)c(C2CCN([C@@H]3COC4(C3)CN(c3nnco3)C4)CC2)cc1F [Example 2GG, (S)-7-(4-(4,5-difluoro-2-((tetrahydro-2H-pyran-4-yl)oxy)phenyl)piperidin-1-yl)-2-(1,3,4-oxadiazol-2-yl)-5-oxa-2-azaspiro[3.4]octane] |  | 87 | > 25000 |  | 58 | 0
